According to patent publication US20220401483A1, “COMBINATION OF A T CELL THERAPY AND (S)-3-[4-(4-MORPHOLIN-4-YLMETHYL-BENZYLOXY)-L-OXO-L,3-DIHYDRO-ISOINDOL-2-YL]-PIPERIDINE-2,6-DIONE” (Juno Therapeutics, Inc., priority 2019, published 2022):
pEC50: −log10 of the molar value.

Columns and labels:
Assay type in all cases: cell-based, human
RL cells = test: Rescue of chronically stimulated CAR T cells cultured with RL cells; conditions: Compound B 1 μM, Compound A 0.001, 0.01 or 0.1 μM
Procedure: The RL cells were further used to assess the ability of immunomodulatory compounds to rescue or reverse the anti-CD19 CAR T cells from exhaustion. Anti-CD19 CAR-expressing T cells were stimulated under conditions to induce chronic stimulation and then were subsequently treated (rescue) with Compound B (1 μM) or Compound A (0.001 μM, 0.01 μM or 0.1 μM), or a vehicle control. Long-term, chronic stimulation was carried out by stimulation of CAR T cells with 30 μg/mL plate-bound anti-idiotypic (anti-ID) antibody for 6 days, substantially as described in Example 3. After the chronic stimulation, the CAR-T cells were cultured with RL cells in the presence of Compound B or Compound A. Cytolytic activity was assessed over time by measuring tumor cell number in the culture.

Ikaros = test: Intracellular Ikaros expression in stimulated anti-CD19 CAR-expressing T cells (flow cytometry MFI)
Procedure: (§1) T cell compositions containing anti-CD19 CAR-expressing T cells were generated from leukapheresis samples from three healthy human adult donors by a process including immunoaffinity-based selection of T cells (including CD4+ and CD8+ cells) from the samples, resulting in two compositions, enriched for CD8+ and CD4+ cells, respectively. The cells were incubated in the presence of (S)-3-[4-(4-morpholin-4-ylmethyl-benzyloxy)-1-oxo-1,3-dihydro-isoindol-2-yl]-piperidine-2,6-dione (Compound A) or 3-(5-amino-2-methyl-4-oxo-4H-quinazolin-3-yl)-piperidine-2,6-dione (Compound B), and expression of the transcription factors Ikaros and Aiolos was assessed. Cells of the enriched CD4+ and CD8+ compositions were separately activated with anti-CD3/anti-CD28 beads and subjected to lentiviral transduction with a vector encoding an anti-CD19 CAR. The anti-CD19 CAR contained an anti-CD19 scFv derived from a murine antibody (variable region derived from FMC63), an immunoglobulin-derived spacer, a transmembrane domain derived from CD28, a costimulatory region derived from 4-1BB, and a CD3-zeta intracellular signaling domain. The expression construct in the viral vector further contained sequences encoding a truncated receptor, which served as a surrogate marker for CAR expression, which was separated from the CAR sequence by a T2A ribosome skip sequence. Transduced populations then were separately incubated in the presence of stimulating reagents for cell expansion. Expanded CD8+ and CD4+ cells were formulated and cryopreserved separately and stored. The cryopreserved CD4+ and CD8+ anti-CD19 CAR-expressing cells from each donor were thawed, and combined at approximately a 1:1 CAR+CD4+:CD8+ ratio prior to use. Approximately 2.5×10^5 cells of the generated CAR+ T cell composition were stimulated overnight with 1 μg/ml of a CAR-specific anti-idiotypic antibody in the presence of 3-(5-amino-2-methyl-4-oxo-4H-quinazolin-3-yl)-piperidine-2,6-dione (Compound B) or (S)-3-[4-(4-morpholin-4-ylmethyl-benzyloxy)-1-oxo-1,3-dihydro-isoindol-2-yl]-piperidine-2,6-dione (Compound A) at concentrations ranging from 10 to 10000 nM or a vehicle control overnight at 37° C., 5% C02. Following overnight incubation, anti-CD19 CAR-expressing T cells were stained with antibodies and analyzed by flow cytometry to assess intracellular levels of Ikaros and Aiolos in CD4+ CAR+ or CD8+ CAR+ cells, as measured by median fluorescence intensity (MFI). Median fluorescence intensity (MFI) values for Ikaros and Aiolos were normalized and calculated as a percentage relative to vehicle control. […] The EC50 for reducing Aiolos and Ikaros expression was calculated as determined from the concentration of the inhibitor that reduced Aiolos or Ikaros MFI to 50% of its maximal MFI in the absence of the inhibitor.

RL tumor spheroids = test: RL tumor spheroid model with anti-CD19 CAR T cells; conditions: Day 4; 1 μM Compound B, 0.01 μM or 0.1 μM Compound A
Procedure: Cytolytic activity was also assessed in a spheroid model. About 5,000 RL cells were plated 48 hours prior to addition of 5,000 anti-CD19 CAR T cells (1:1 E:T ratio). Anti-CD19 CAR T cells were co-cultured with RL tumor spheroids, in the presence of Compound B (1 μM) or Compound A (0.001 μM, 0.01 μM or 0.1 μM)).

Aiolos = test: Intracellular Aiolos expression in stimulated anti-CD19 CAR-expressing T cells (flow cytometry MFI)
Procedure: as §1

[1] = overnight incubation, 1 μg/ml anti-idiotypic antibody, average of donors (range, 95% confidence interval)

SMILES: Cc1nc2cccc(N)c2c(=O)n1C1CCC(=O)NC1=O (stereo not drawn) [Compound B, 3-(5-amino-2-methyl-4-oxo-4H-quinazolin-3-yl)-piperidine-2,6-dione, reference compound]
CAR T cell cytolytic activity, RL cell growth (RL cells): substantially improved
sensitivity of RL tumor spheroids to compound (RL tumor spheroids): sensitive
